Results taken from patent US20240270821A1, “GIP/GLP1/GCG TRI-RECEPTOR AGONISTS AND USES THEREOF” (priority 2023, published 2024).
Read-outs that look alike come from different tables or passages of the source. Starred links: 1 amine or outer side, 2 acyl side, 3 side chain; linkers in the order of their positions; H or OH if unused. Non-standard residues stand in square brackets, D forms with d. Residues, ends and D or L forms follow the SMILES beside them. Groups on a side chain read outwards from the residue. No end group written: not given here. *: point of attachment. C20 diacid = O=C(O)CCCCCCCCCCCCCCCCCCC(=O)*; C18 diacid = O=C(O)CCCCCCCCCCCCCCCCC(=O)*; αMePhe(2-F) = C[C@](N)(Cc1ccccc1F)C(=O)O; γGlu = O=C(O)[C@H](CCC(=O)[*:2])N[*:1]; αMe4Pal = C[C@](N)(Cc1ccncc1)C(=O)O; αMeY = C[C@](N)(Cc1ccc(O)cc1)C(=O)O; αMeF = C[C@](N)(Cc1ccccc1)C(=O)O; 4Pal = N[C@@H](Cc1ccncc1)C(=O)O; Aad = N[C@@H](CCCC(=O)O)C(=O)O; αMeL = CC(C)C[C@](C)(N)C(=O)O; αMeS = C[C@](N)(CO)C(=O)O; Orn = NCCC[C@H](N)C(=O)O; AEEA = NCCOCCOCC(=O)O; Aib = CC(C)(N)C(=O)O

What was measured:
Type in all cases: cell-based
[1] = target: T1, hGLP-1R (Homo sapiens, UniProt P43220); test: Functional cAMP activity in the presence of 1% HSA; settings: read-out: cAMP Rel EC50, hGLP-1R
[2] = target: T2, hGIPR (Homo sapiens, UniProt P48546); test: Functional cAMP activation in the presence of 0.1% casein (no HSA); settings: read-out: Relative cAMP EC50, hGIPR;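 note: intracellular cAMP rise after 30 min at 37 °C read by HTRF against a standard curve, scaled between buffer alone (0%) and top control ligand concentration (100%), four-parameter fit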
T2 sequence (P48546 22-466): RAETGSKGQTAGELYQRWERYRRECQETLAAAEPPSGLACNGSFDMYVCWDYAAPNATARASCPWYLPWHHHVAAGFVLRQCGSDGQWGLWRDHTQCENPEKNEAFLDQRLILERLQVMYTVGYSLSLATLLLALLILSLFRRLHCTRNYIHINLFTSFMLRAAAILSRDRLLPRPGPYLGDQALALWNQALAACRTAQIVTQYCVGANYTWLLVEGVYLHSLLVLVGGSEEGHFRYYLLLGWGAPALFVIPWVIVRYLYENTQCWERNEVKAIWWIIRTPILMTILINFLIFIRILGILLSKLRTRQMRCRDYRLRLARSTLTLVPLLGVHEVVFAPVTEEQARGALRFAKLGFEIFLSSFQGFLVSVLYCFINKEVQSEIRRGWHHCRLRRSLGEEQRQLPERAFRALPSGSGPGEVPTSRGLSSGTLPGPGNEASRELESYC

[3] = target: hGcgR (Homo sapiens, UniProt P47871); test: as above; settings: read-out: Relative cAMP EC50, hGcgR;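 note: intracellular cAMP rise after 30 min at 37 °C, read by HTRF against a cAMP standard curve, scaled from buffer only (0%) to maximal control ligand response (100%)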
[4] = target: human GcgR (Homo sapiens, UniProt P47871); test: Functional cAMP activity in the presence of 1% HSA; settings: read-out: cAMP Rel EC50, hGcgR
[5] = target: T1, hGLP-1R; test: Functional cAMP activation in the presence of 0.1% casein (no HSA); settings: read-out: Relative cAMP EC50, hGLP-1R;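 for Relative cAMP EC50, hGLP-1R: intracellular cAMP rise after 30 min at 37 °C read by HTRF, normalized between buffer only (0%) and maximal control ligand (100%), four-parameter variable-slope fit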;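 for Relative cAMP EC50, hGcgR: intracellular cAMP rise after 30 min at 37 °C, read by HTRF against a cAMP standard curve, scaled from buffer only (0%) to maximal control ligand response (100%)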
[6] = target: T2, hGIPR; test: Functional cAMP activity in the presence of 1% HSA; settings: read-out: cAMP Rel EC50, hGIPR
[7] = in the presence of 0.1% casein (no HSA), geometric mean
[8] = HEK-293 clonal cell line, 1% HSA, geometric mean of relative EC50
[9] = in the presence of 0.1% casein (no HSA), geometric mean of relative EC50

T1 sequence (P43220 24-463): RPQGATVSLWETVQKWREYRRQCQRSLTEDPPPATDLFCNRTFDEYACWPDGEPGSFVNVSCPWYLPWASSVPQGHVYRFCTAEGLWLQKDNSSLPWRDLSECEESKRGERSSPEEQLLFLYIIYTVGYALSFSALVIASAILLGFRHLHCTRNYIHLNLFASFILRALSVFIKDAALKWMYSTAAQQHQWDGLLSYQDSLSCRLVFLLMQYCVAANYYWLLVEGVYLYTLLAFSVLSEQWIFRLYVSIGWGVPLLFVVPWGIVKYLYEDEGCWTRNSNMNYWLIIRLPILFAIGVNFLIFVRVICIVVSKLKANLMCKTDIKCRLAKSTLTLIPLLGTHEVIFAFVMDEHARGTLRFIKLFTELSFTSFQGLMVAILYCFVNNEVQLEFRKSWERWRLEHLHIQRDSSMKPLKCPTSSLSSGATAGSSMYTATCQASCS
Chain of human GcgR (P47871 26-477): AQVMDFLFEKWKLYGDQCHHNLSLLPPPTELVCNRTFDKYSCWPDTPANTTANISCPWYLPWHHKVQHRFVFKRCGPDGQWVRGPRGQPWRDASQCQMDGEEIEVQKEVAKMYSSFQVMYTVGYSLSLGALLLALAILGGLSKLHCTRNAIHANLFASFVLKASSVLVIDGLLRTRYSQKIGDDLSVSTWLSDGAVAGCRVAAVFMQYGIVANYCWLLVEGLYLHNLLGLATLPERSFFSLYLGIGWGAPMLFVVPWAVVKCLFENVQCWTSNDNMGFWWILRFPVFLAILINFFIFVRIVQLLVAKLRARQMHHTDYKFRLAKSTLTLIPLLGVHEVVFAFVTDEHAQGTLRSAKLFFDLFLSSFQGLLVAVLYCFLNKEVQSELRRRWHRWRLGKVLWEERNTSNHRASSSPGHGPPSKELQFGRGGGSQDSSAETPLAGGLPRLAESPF
Chain of hGcgR (P47871 26-477): as above

Compound	EC50 [1]	EC50 [2, 7]	EC50 [3, 7]	EC50 [4]	EC50 [5, 7]	EC50 [6]	EC50 [2]	EC50 [3]	EC50 [5]	EC50 [1, 8]	EC50 [2, 9]	EC50 [3, 9]	EC50 [4, 8]	EC50 [5, 9]	EC50 [6, 8]
H-Y[Aib]QGTFTSD[4Pal]SQ[αMeL]LDKK([γGlu-γGlu-C18 diacid])AQ[αMe4Pal]AFIEYLIE[Aib]GPSSGAPPPSGE-NH2 [Example 882]	361 nM	0.129 nM	2.73 nM	559 nM	2.33 nM	26.6 nM	–	–	–	–	–	–	–	–	–
CC[C@H](C)[C@H](NC(=O)[C@H](CO)NC(=O)[C@H](Cc1ccc(O)cc1)NC(=O)[C@H](CC(=O)O)NC(=O)[C@H](CO)NC(=O)[C@@H](NC(=O)[C@](C)(Cc1ccccc1F)NC(=O)[C@@H](NC(=O)CNC(=O)[C@H](CCC(N)=O)NC(=O)C(C)(C)NC(=O)[C@@H](N)Cc1ccc(O)cc1)[C@@H](C)O)[C@@H](C)O)C(=O)N[C@@H](CC(C)C)C(=O)N[C@@H](CC(C)C)C(=O)N[C@@H](CC(=O)O)C(=O)N[C@@H](CCCCN)C(=O)N[C@@H](CCCCNC(=O)CC[C@H](NC(=O)CC[C@H](NC(=O)CCCCCCCCCCCCCCCCC(=O)O)C(=O)O)C(=O)O)C(=O)N[C@@H](C)C(=O)N[C@@H](CCC(N)=O)C(=O)NC(C)(C)C(=O)N[C@@H](CCCC(=O)O)C(=O)N[C@@H](Cc1ccccc1)C(=O)N[C@H](C(=O)N[C@@H](CCC(=O)O)C(=O)N[C@@H](Cc1ccc(O)cc1)C(=O)N[C@@H](CC(C)C)C(=O)N[C@@H](CCC(=O)O)C(=O)N[C@@H](CCC(=O)O)C(=O)NCC(=O)NCC(=O)N1CCC[C@H]1C(=O)N[C@@H](CO)C(=O)N[C@@H](CO)C(=O)NCC(=O)N[C@@H](C)C(=O)N1CCC[C@H]1C(=O)N1CCC[C@H]1C(=O)N1CCC[C@H]1C(=O)N[C@@H](CO)C(N)=O)[C@@H](C)CC [Example 415] (H-Y[Aib]QGT[αMePhe(2-F)]TSDYSILLDKK([γGlu-γGlu-C18 diacid])AQ[Aib][Aad]FIEYLEEGGPSSGAPPPS-NH2)	52.6 nM	–	–	1090 nM	–	28.9 nM	0.0496 nM	8.64 nM	0.38 nM	–	–	–	–	–	–
H-Y[Aib]QGT[αMePhe(2-F)]TSD[4Pal][αMeS]I[αMeL]LD[Orn]K([AEEA-γGlu-C18 diacid])AQ[αMe4Pal]EFI[dE][αMeY]LIEGGPSSGAPPPGGE-NH2 [Example 1144]	36.5 nM	0.00649 nM	1.32 nM	196 nM	0.282 nM	0.72 nM	–	–	–	–	–	–	–	–	–
Y[Aib]QGT[αMePhe(2-F)]TSD[4Pal][αMeS]I[αMeL]LE[Orn]K([AEEA-γGlu-C18 diacid])AQ[αMe4Pal]EFI[dE][αMeY]LVEGGPSSGAPPPSGS-NH2 [Example 768]	33.2 nM	–	–	2270 nM	–	2.65 nM	0.0294 nM	10.3 nM	0.259 nM	–	–	–	–	–	–
H-Y[Aib]QGT[αMePhe(2-F)]TSD[4Pal]SILLD[Orn]K([γGlu-γGlu-C18 diacid])AQ[Aib]AFIEYLEEGGPSSGAPPPSGTE-NH2 [Example 513]	78.2 nM	–	–	1440 nM	–	10.3 nM	0.0956 nM	9.58 nM	0.634 nM	–	–	–	–	–	–
H-Y[Aib]QGTFTSDFS[Orn][αMeL]LDKK([AEEA-γGlu-C18 diacid])AQ[Aib]AFIEWLLEGGHSSGEPPPEGS-NH2 [Example 127]	1000 nM	0.312 nM	4.35 nM	1010 nM	4.8 nM	62.9 nM	–	–	–	–	–	–	–	–	–
H-Y[Aib]QGT[αMePhe(2-F)]TSD[4Pal][αMeS]I[αMeL]LD[Orn]K([γGlu-γGlu-C18 diacid])AQ[Aib]NFI[dE][αMeY]LQEGGPSSGEPPPEGT-NH2 [Example 525]	20.2 nM	–	–	460 nM	–	2.07 nM	0.0351 nM	10 nM	0.426 nM	–	–	–	–	–	–
H-Y[Aib]QGTFTSD[4Pal]SQ[αMeL]LDKK([Glu-γGlu-C18 diacid])AQ[αMe4Pal]AFIEYLIE[Aib]GPSSGAPPPSGS-NH2 [Example 894]	711 nM	0.0752 nM	6.09 nM	2330 nM	2.01 nM	30.9 nM	–	–	–	–	–	–	–	–	–
H-Y[Aib]QGTFTSDYSI[αMeL]LDKQAAK([AEEA-AEEA-γGlu-C20 diacid])QFVEWLIA[Aib]GPSSGEPPPGTG-NH2 [Example 336]	227 nM	0.306 nM	7.05 nM	1740 nM	0.921 nM	64.4 nM	–	–	–	–	–	–	–	–	–
CC[C@H](C)[C@H](NC(=O)[C@H](Cc1ccccc1)NC(=O)[C@H](C)NC(=O)C(C)(C)NC(=O)[C@H](CCC(N)=O)NC(=O)[C@H](C)NC(=O)[C@H](CCCCNC(=O)CC[C@H](NC(=O)CC[C@H](NC(=O)CCCCCCCCCCCCCCCCC(=O)O)C(=O)O)C(=O)O)NC(=O)[C@H](CCCCN)NC(=O)[C@H](CC(=O)O)NC(=O)[C@H](CC(C)C)NC(=O)[C@](C)(CC(C)C)NC(=O)[C@@H](NC(=O)[C@H](CO)NC(=O)[C@H](Cc1ccncc1)NC(=O)[C@H](CC(=O)O)NC(=O)[C@H](CO)NC(=O)[C@@H](NC(=O)[C@](C)(Cc1ccccc1F)NC(=O)[C@@H](NC(=O)CNC(=O)[C@H](CCC(N)=O)NC(=O)C(C)(C)NC(=O)[C@@H](N)Cc1ccc(O)cc1)[C@@H](C)O)[C@@H](C)O)[C@@H](C)CC)C(=O)N[C@@H](CCC(=O)O)C(=O)N[C@@H](Cc1ccc(O)cc1)C(=O)N[C@@H](CC(C)C)C(=O)N[C@@H](CCC(=O)O)C(=O)N[C@@H](CCC(=O)O)C(=O)NCC(=O)NCC(=O)N1CCC[C@H]1C(=O)N[C@@H](CO)C(=O)N[C@@H](CO)C(=O)NCC(=O)N[C@@H](C)C(=O)N1CCC[C@H]1C(=O)N1CCC[C@H]1C(=O)N1CCC[C@H]1C(=O)N[C@@H](CO)C(N)=O [Example 440] (H-Y[Aib]QGT[αMePhe(2-F)]TSD[4Pal]SI[αMeL]LDKK([γGlu-γGlu-C18 diacid])AQ[Aib]AFIEYLEEGGPSSGAPPPS-NH2)	27.4 nM	–	–	830 nM	–	1.81 nM	0.0226 nM	7.14 nM	0.467 nM	–	–	–	–	–	–
H-Y[Aib]QGT[αMePhe(2-F)]TSD[4Pal]SI[αMeL]LDKK([γGlu-γGlu-C18 diacid])AQ[Aib]AFIEYLQEGGPSSGEPPPSGSEE-NH2 [Example 634]	–	–	–	–	–	–	–	–	–	34.9 nM	0.0195 nM	6.49 nM	979 nM	0.403 nM	1.48 nM
H-Y[Aib]QGTFTSDFS[Orn][αMeL]LDKK([AEEA-γGlu-C18 diacid])AQ[Aib]AFIEYLLEGGPSSGAPPPGGE-NH2 [Example 63]	348 nM	0.255 nM	4.1 nM	709 nM	4.78 nM	40.4 nM	–	–	–	–	–	–	–	–	–
CC[C@H](C)[C@H](NC(=O)[C@H](Cc1ccccc1)NC(=O)[C@H](C)NC(=O)C(C)(C)NC(=O)[C@H](CCC(N)=O)NC(=O)[C@H](C)NC(=O)[C@H](CCCCNC(=O)COCCOCCNC(=O)COCCOCCNC(=O)CC[C@H](NC(=O)CCCCCCCCCCCCCCCCC(=O)O)C(=O)O)NC(=O)[C@H](CCCCN)NC(=O)[C@H](CC(=O)O)NC(=O)[C@H](CC(C)C)NC(=O)[C@H](CC(C)C)NC(=O)[C@@H](NC(=O)[C@H](CO)NC(=O)[C@H](Cc1ccncc1)NC(=O)[C@H](CC(=O)O)NC(=O)[C@H](CO)NC(=O)[C@@H](NC(=O)[C@](C)(Cc1ccccc1)NC(=O)[C@@H](NC(=O)CNC(=O)[C@H](CCC(N)=O)NC(=O)C(C)(C)NC(=O)[C@@H](N)Cc1ccc(O)cc1)[C@@H](C)O)[C@@H](C)O)[C@@H](C)CC)C(=O)N[C@@H](CCC(=O)O)C(=O)N[C@@H](Cc1ccc(O)cc1)C(=O)N[C@@H](CC(C)C)C(=O)N[C@@H](CC(C)C)C(=O)N[C@@H](CCC(=O)O)C(=O)NCC(=O)NCC(=O)N1CCC[C@H]1C(=O)N[C@@H](CO)C(=O)N[C@@H](CO)C(=O)NCC(=O)N[C@@H](C)C(=O)N1CCC[C@H]1C(=O)N1CCC[C@H]1C(=O)N1CCC[C@H]1C(=O)N[C@@H](CO)C(N)=O [Example 418] (H-Y[Aib]QGT[αMeF]TSD[4Pal]SILLDKK([AEEA-AEEA-γGlu-C18 diacid])AQ[Aib]AFIEYLLEGGPSSGAPPPS-NH2; N-terminus assumed)	36.6 nM	–	–	627 nM	–	6.02 nM	0.0153 nM	4.7 nM	0.264 nM	–	–	–	–	–	–
H-Y[Aib]QGT[αMePhe(2-F)]TSDYSILLDKK([AEEA-γGlu-C18 diacid])AQ[Aib]AFIEFLEEGGPSSGAPPPSEG-NH2 [Example 412]	46 nM	–	–	467 nM	–	12.5 nM	0.0351 nM	2.36 nM	0.282 nM	–	–	–	–	–	–
